Measured values as given in PubChem BioAssay (NCI).
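Values below derive from 48-hour exposures of cells grown in 96-well plates, with endpoints linearly interpolated between the two concentrations bracketing the appropriate inhibition level. The concentration for 50% growth inhibition is given as GI50. TGI is the concentration that stops growth completely.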

Key:
Test in all cases: NCI-60 cell line screen, 48 h
[1] = tested on: MOLT-4 leukemia
[2] = tested on: OVCAR-4 ovarian
[3] = tested on: HCC-2998 colon
[4] = tested on: NCI-H23 lung
[5] = tested on: SW-620 colon
[6] = tested on: HCT-116 colon
[7] = tested on: SN12C renal
[8] = tested on: CCRF-CEM leukemia
[9] = tested on: RXF 393 renal
[10] = tested on: MALME-3M melanoma

| SMILES | TGI [1] | TGI [2] | TGI [3] | TGI [4] | TGI [5] | TGI [6] | TGI [7] | TGI [8] | TGI [9] | TGI [10] | GI50 [1] | GI50 [9] | GI50 [10] | GI50 [4] | GI50 [5] | GI50 [7] | GI50 [8] | GI50 [2] | GI50 [3] | GI50 [6] |
| --- | --- | --- | --- | --- | --- | --- | --- | --- | --- | --- | --- | --- | --- | --- | --- | --- | --- | --- | --- | --- |
| CN1C[C@H]2[C@@H](C1=O)[C@H](c1ccccc1)ON2C | > 100 µM | > 100 µM | > 100 µM | > 100 µM | > 100 µM | > 100 µM | > 100 µM | > 100 µM | – | – | – | – | – | – | – | – | – | – | – | – |
| CC(=O)O[C@H]1C=CC(=O)C(C)CC1C (some centres undefined) | > 100 µM | > 100 µM | > 100 µM | > 100 µM | > 100 µM | > 100 µM | > 100 µM | > 100 µM | > 100 µM | > 100 µM | – | – | – | – | – | – | – | – | – | – |
| COc1ccc(-c2nn(-c3cccc(NC(=O)Nc4ccccc4)c3)cc2-c2ccncc2)cc1Cl | 7.96 µM | – | – | > 100 µM | 7.36 µM | – | 7.39 µM | 8.31 µM | 6.47 µM | 4.83 µM | 2.5 µM | 1.97 µM | 1.89 µM | 3.5 µM | 2.51 µM | 2.39 µM | 2.65 µM | – | – | – |
| Fc1ccc(-c2nn3c(-c4cc(C(F)(F)F)cc(C(F)(F)F)c4)nnc3s2)cc1 | > 50 µM | > 50 µM | > 50 µM | > 50 µM | > 50 µM | > 50 µM | > 50 µM | > 50 µM | > 50 µM | – | > 50 µM | 1.78 µM | – | 3.05 µM | > 50 µM | 2.51 µM | > 50 µM | 1.48 µM | > 50 µM | 1.7 µM |
| C=C1C(=O)O[C@@H]2[C@H]1CCC(C)=C1C=CC(=O)[C@]12C | 39.4 µM | – | 27.8 µM | – | 18.4 µM | 26.7 µM | 29.3 µM | 26 µM | 29.8 µM | – | – | – | – | – | – | – | – | – | – | – |
| CC(=O)C=NCC(=O)O | > 100 µM | > 100 µM | – | > 100 µM | > 100 µM | > 100 µM | > 100 µM | > 100 µM | > 100 µM | > 100 µM | – | – | – | – | – | – | – | – | – | – |
| O=C(Nc1ccc(Sc2ccc(N=Nc3c(O)c(S(=O)(=O)O)cc4cc(S(=O)(=O)O)ccc34)cc2)cc1)c1ccc(N=Nc2c(O)ccc3c(S(=O)(=O)O)cc(S(=O)(=O)O)cc23)cc1 | 52.1 µM | > 100 µM | > 100 µM | > 100 µM | > 100 µM | > 100 µM | > 100 µM | 77.4 µM | > 100 µM | 72 µM | – | – | – | – | – | – | – | – | – | – |
| c1ccc(N=c2nc(N3CCOCC3)ss2)cc1 | 37.1 µM | 29.1 µM | 45.1 µM | > 100 µM | 21.8 µM | 27.7 µM | 28.5 µM | – | 31.3 µM | 28.8 µM | – | – | – | – | – | – | – | – | – | – |
| N#CC(Nc1cccc(C(F)(F)F)c1)c1ccccc1C(F)(F)F (centres undefined) | 40.5 µM | 15.2 µM | 18.6 µM | 27.6 µM | 11 µM | 18.7 µM | 17.9 µM | 59.7 µM | 24.8 µM | 18 µM | – | – | – | – | – | – | – | – | – | – |
| CCC(=O)NC(Nc1cccc(F)c1)(C(F)(F)F)C(F)(F)F | > 100 µM | > 100 µM | > 100 µM | > 100 µM | > 100 µM | > 100 µM | > 100 µM | > 100 µM | > 100 µM | – | – | – | – | – | – | – | – | – | – | – |
